What was measured:
N1^+/− ECs = assay: Validation trials of screen candidates by targeted RNA-seq with the trained KNN algorithm; format: cell-based, human; conditions: duplicate or triplicate; one or more replicates classified as WT
Protocol: Starting on day 15 of differentiation, WT ECs were exposed to 10 μM DMSO (dimethyl sulfoxide) (n=80) while isogenic N1^+/− ECs were exposed to either 10 μM DMSO (n=80) or one of the small molecules from the LOPAC (1280 molecules) (Sigma LO1280) or Sheng Ding (315 molecules) chemical libraries. DMSO or small molecules were renewed with EC media (ScienCell #1001) changes on alternating days until the cells were ultimately collected for analysis on day 21. ECs were imaged using the IN Cell Analyzer on day 21 to evaluate morphology and cell death; wells with extensive cell death were eliminated from final analyses. For validation experiments, promising small molecules identified from the initial screen were applied to N1^+/− ECs in duplicate or triplicate along with controls of DMSO-exposed WT and N1^+/− ECs (n=4 each) using the same process as the initial screen described above.
ECs were lysed and RNA was isolated using the Qiagen RNeasy 96-well purification kit. RNA was diluted so that it was between the 10 pg-1 ng range accepted by the Cellular Research Precise targeted RNA-seq (RNA sequencing) system. Targeted RNA-seq libraries were prepared as per the Cellular Research Precise protocol (Rev 03092015), which includes both molecule and sample barcoding. The selected 119 target genes (see Table 1) included 3 low-expressing housekeeping genes for normalization (CHMP2A, C1orf43, REEP5) and either predicted central regulatory nodes or peripheral genes positioned within varied regions of the N1 network to permit identification of small molecules that affected central nodes as well as those that may have a synergistic effect in combination due to regulating different aspects of the network. Briefly, RNA was added to the Precise Encoding Plate containing indexed dT primer, dNTPs, and Spike-in mRNA controls and incubated at 65° C. for 3 minutes followed by cooling on ice. A master-mix of RT enzyme, RNase inhibitor, and buffer was then added to the samples, and they were incubated at 42° C. for 30 minutes followed by 80° C. for 5 minutes. Each plate of samples was combined into a single 2 ml tube and purified with AMPureXP beads. N1 PCR master-mix was added and samples were incubated for 94° C. for 2 minutes, followed by 15 cycles of 94° C. for 30 seconds, 55° C. for 3 minutes, and 68° C. for 1 minute, followed by 68° C. for 7 minutes. Samples were purified with AMPureXP beads and N2 PCR master-mix was added. Samples were incubated with the same thermal cycler program as above for 12 cycles. These final libraries were then purified with AMPureXP beads and analyzed for quality and concentration by Agilent Bioanalyzer and Illumina Library Quantification Kit (KAPA Biosystems), respectively. Libraries were normalized to equivalent concentration and pooled for paired-end 100 bp sequencing on an Illumina HiSeq 2500 instrument.
Sequencing data was analyzed using Cellular Research Precise Analysis Pipeline on the SevenBridges platform, which included analyzing sequencing quality with FASTQC, trimming adapters and filtering reads, demultiplexing based on sample barcodes, aligning reads with Bowtie 2, and determining the number of unique molecular indices per gene. Network inference was based on mutual information of gene expression from all DMSO- and small molecule-exposed samples as described in Margolin et al., BMC Bioinformatics. 2006; 7 Suppl 1:S7. Network diagram was generated using NetworkX (Hagberg et al., Exploring Network Structure, Dynamics, and Function using NetworkX. SciPy. 2008) based on network connections inferred from the small molecule screen data as described above with colors based on whole transcriptome RNA-seq gene expression of isogenic N1^+/− compared to WT ECs.
Promising small molecules were identified using either K-nearest neighbor (KNN) or hierarchical clustering algorithms. […]

N1^+/−/mTR^G2 mice [1] = assay: In vivo small molecule treatment, staining of AV calcification with Alizarin Red; conditions: for reduction of the extent of calcification / reduction of the number of mice that developed calcification: compared to DMSO-treated mice, Alizarin red; for reduction of the extent of calcification: TG003 n=2, p=0.09, XCT790 single calcified mouse, not statistically significant; for reduction of the number of mice that developed calcification: TG003 p=0.09, XCT790 not statistically significant; for number of mice with calcified AVs by Alizarin red staining: four weeks of treatment from fourth postnatal week, DMSO 14 of 86; for AV calcification, overall conclusion: summary statement
Protocol: (§1) Protocols were reviewed/approved by UCSF Institutional Animal Care and Use Committee, San Francisco, CA. N1^+/− and mTR^het C57Bl6 mice (purchased from Jackson Labs: #002797 and #004132, respectively) were used to generate double mutant animals. Breedings were performed as previously described (Theodoris et al., The Journal of Clinical Investigation. 2017; 127:1683) to generate N1^+/−/[…] mice. Mice were treated with XCT790 (5 mg/kg/day), TG003 (0.3 mg/kg/day or 2 mg/kg/day, results pooled for analysis), Fmoc-leu (0.6 mg/kg/day), GSK837149A (4.5 mg/kg/day), biperiden (10 mg/kg/day), CB1954 (15 mg/kg/day), putrescine (0.26 mg/kg/day), naloxone (25 mg/kg/day), all by intraperitoneal injection, and RO4929097 (60 mg/kg/day) by oral gavage, or equivalent volume of solvent (DMSO or saline) for four weeks starting at the fourth postnatal week.
Hearts were fixed by perfusion fixation under anesthesia using isofluorane by ventricular KCl injection followed by PBS wash and fixation with 4% paraformaldehyde. Hearts were then incubated in 10% formalin overnight. The cardiac apex was cut parallel to the aortic root, and the heart tissue was then paraffin processed using standard protocols and embedded with the cut surface down. The resulting paraffin block was trimmed and angled to obtain a full three-leaflet view of the aortic root. The root was serially sectioned at […] intervals from the base of the aortic sinus and mounted on slides. The slides were then deparaffinized, and calcification was stained with 2% Alizarin Red (pH 4.1-4.3) as previously described (Theodoris et al., The Journal of Clinical Investigation. 2017; 127:1683).

N1^+/−/mTR^G2 mice [2] = assay: In vivo small molecule treatment, AV and PV peak velocity by echocardiography; conditions: XCT790 5 mg/kg/day i.p., TG003 0.3 or 2 mg/kg/day i.p. pooled; for AV stenosis by echocardiography: AV peak velocity versus DMSO; for PV stenosis by echocardiography: PV peak velocity versus DMSO
Protocol: as §1
Echocardiography was performed under isofluorane anesthesia with standard measurement techniques using the Vevo 770 Imaging System (VisualSonics) equipped with an RMV-707B transducer with central frequency of 30 MHz. Peak blood flow velocity through AVs and PVs was obtained by pulsed wave Doppler in the modified parasternal long and short axis views. The average of three cardiac cycles was used for each measurement.

`CCN1/C(=C/C(C)=O)Sc2ccc(OC)cc21` [TG003, (Z)-1-(3-ethyl-5-methoxy-2,3-dihydrobenzothiazol-2-ylidene)propan-2-one] was tested, and the “KNN classification of treated N1^+/− ECs in validation trials” value (N1^+/− ECs) was “classified as WT”, the “reduction of the extent of calcification” value (N1^+/−/mTR^G2 mice [1]) was 80% and the “reduction of the number of mice that developed calcification” value (N1^+/−/mTR^G2 mice [1]) was 68%. The “number of mice with calcified AVs by Alizarin red staining” value (N1^+/−/mTR^G2 mice [1]) was 2 of 38, the “AV calcification, overall conclusion” value (N1^+/−/mTR^G2 mice [1]) was “showed a trend of reducing AV calcification” and the “AV stenosis by echocardiography” value (N1^+/−/mTR^G2 mice [2]) was “did not significantly impact”. For the same compound, the “PV stenosis by echocardiography” value (N1^+/−/mTR^G2 mice [2]) was “did not significantly impact”.
With `COc1cc(/C=C(\C#N)C(=O)Nc2nnc(C(F)(F)F)s2)ccc1OCc1ccc(C(F)(F)F)cc1C(F)(F)F` [XCT790, 2E-3-(4-{[2,4-bis(trifluoromethyl)benzyl]oxy}-3-methoxyphenyl)-2-cyano-N-[5-(trifluoromethyl)-1,3,4-thiadiazol-2-yl]acrylamide] the “KNN classification of treated N1^+/− ECs in validation trials” value (N1^+/− ECs) was “classified as WT”, the “reduction of the extent of calcification” value (N1^+/−/mTR^G2 mice [1]) was 99% and the “reduction of the number of mice that developed calcification” value (N1^+/−/mTR^G2 mice [1]) was 64%. The “number of mice with calcified AVs by Alizarin red staining” value (N1^+/−/mTR^G2 mice [1]) was 1 of 17, the “AV calcification, overall conclusion” value (N1^+/−/mTR^G2 mice [1]) was “showed a trend of reducing AV calcification” and the “AV stenosis by echocardiography” value (N1^+/−/mTR^G2 mice [2]) was “showed a trend of reducing AV stenosis”. The “PV stenosis by echocardiography” value (N1^+/−/mTR^G2 mice [2]) was “sufficient to prevent PV stenosis”.

From patent publication US12599608B2, “Methods for treating cardiac valve disease” (The Regents of the University of California, priority 2018, dated 2026)
